Measured values reported in patent publication US9791443B2, “Method for differentially quantifying naturally processed HLA-restricted peptides for cancer, autoimmune and infectious diseases immunotherapy development” (IMMATICS BIOTECHNOLOGIES GMBH, priority 2010, dated 2017).

Test system: CD8+ T cells
Assay: In vitro immunogenicity: priming of CD8+ T cells with pMHC/anti-CD28 coated beads (aAPC), A*2402 multimer staining
Assay type: cell-based, human
Settings: HLA-A*24 healthy donors, three stimulation cycles; for Positive donors/donors tested [%]: positive among evaluable donors, at least two donors evaluable per peptide; for Positive wells/wells tested [%]: positive among evaluable wells, at least 24 wells evaluable per peptide
Source text: To get information regarding the immunogenicity of the TUMAPs of the present invention, we performed investigations using a well established in vitro stimulation platform already described by (Walter, S, Herrgen, L, Schoor, O, Jung, G, Wernet, D, Buhring, H J, Rammensee, H G, and Stevanovic, S; 2003, Cutting edge: predetermined avidity of human CD8 T cells expanded on calibrated MHC/anti-CD28-coated microspheres, J. Immunol., 171, 4974-4978).
In order to perform in vitro stimulations by artificial antigen presenting cells (aAPC) loaded with peptide-MHC complex (pMHC) and anti-CD28 antibody, we first isolated CD8 T cells from fresh HLA-A*24 leukapheresis products of healthy donors obtained from the Blood Bank Tuebingen.
CD8 T cells were either directly enriched from the leukapheresis product or PBMCs (peripheral blood mononuclear cells) were isolated first by using standard gradient separation medium (PAA, Cölbe, Germany). Isolated CD8 lymphocytes or PBMCs were incubated until use in T-cell medium (TCM) consisting of RPMI-Glutamax (Invitrogen, Karlsruhe, Germany) supplemented with 10% heat inactivated human AB serum (PAN-Biotech, Aidenbach, Germany), 100 U/ml Penicillin/100 μg/ml Streptomycin (Cambrex, Cologne, Germany), 1 mM sodium pyruvate (CC Pro, Oberdorla, Germany), 20 μg/ml Gentamycin (Cambrex). 2.5 ng/ml IL-7 (PromoCell, Heidelberg, Germany) and 10 U/ml IL-2 (Novartis Pharma, Nürnberg, Germany) were also added to the TCM at this step. Isolation of CD8+ lymphocytes was performed by positive selection using CD8 MicroBeads (Miltenyi Biotec, Bergisch-Gladbach, Germany).
Generation of pMHC/anti-CD28 coated beads, T-cell stimulations and readout was performed as described before (Walter et al. 4974-78) with minor modifications. Briefly, biotinylated peptide-loaded recombinant HLA-A*2402 molecules lacking the transmembrane domain and biotinylated at the carboxy terminus of the heavy chain were produced. The purified costimulatory mouse IgG2a anti human CD28 Ab 9.3 (Jung, Ledbetter, and Muller-Eberhard 4611-15) was chemically biotinylated using Sulfo-N-hydroxysuccinimidobiotin as recommended by the manufacturer (Perbio, Bonn, Germany).
800.000 beads/200 μl were coated in 96-well plates in the presence of 600 ng biotin anti-CD28 plus 200 ng relevant biotin-pMHC (high density beads). Stimulations were initiated in 96-well plates by co-incubating 1×10^6 CD8+ T cells with 2×10^5 washed coated beads in 200 μl TCM supplemented with 5 ng/ml IL-12 (PromoCell) for 3-4 days at 37° C. Half of the medium was then exchanged by fresh TCM supplemented with 80 U/ml IL-2 and incubating was continued for 3-4 days at 37° C. This stimulation cycle was performed for a total of three times. Finally, multimeric analyses were performed by staining the cells with Live/dead-Aqua dye (Invitrogen, Karlsruhe, Germany), CD8-FITC antibody clone SK1 (BD, Heidelberg, Germany) and PE- or APC-coupled A*2402 MHC multimers. For analysis, a BD LSRII SORP cytometer equipped with appropriate lasers and filters was used. Peptide specific cells were calculated as percentage of total CD8+ cells. Evaluation of multimeric analysis was done using the FlowJo software (Tree Star, Oregon, USA). In vitro priming of specific multimer+ CD8+ lymphocytes was detected by appropriate gating and by comparing to negative control stimulations.

Sequence	Positive donors/donors tested [%]	Positive wells/wells tested [%]
AYAIIKEEL (listed as Homo sapiens) [ATAD2-001]	50	4
AYLVYTDRL (listed as Homo sapiens) [PPAP2C-001]	100	54
FYISPVNKL (listed as Homo sapiens) [AVL9-001]	100	50
HYKPTPLYF (listed as Homo sapiens) [SMC4-001]	75	9
IYNGKLFDLL (listed as Homo sapiens) [KIF2C-001]	13	2
KYNDTFWKEF (listed as Homo sapiens) [HSP90B1-001]	50	4
LYQILQGIVF (listed as Homo sapiens) [CDC2-001]	88	28
NYEETFPHI (listed as Homo sapiens) [MUC6-001]	50	21
NYLLYVSNF [MMP11-001]	33	11
NYLLYVSNF [MST1R-001] (listed as Homo sapiens)	50	14
NYLPFIMEL (listed as Homo sapiens) [UCHL5-001]	75	14
QYASRFVQL (listed as Homo sapiens) [PLK4-001]	60	5
RFLSGIINF (listed as Homo sapiens) [NUF2-002]	50	4
RYLWATVTI (listed as Homo sapiens) [ASPM-001]	17	3
SYIDVLPEF (listed as Homo sapiens) [MET-006]	63	22
SYNPLWLRI (listed as Homo sapiens) [ASPM-002]	63	31
TYGNLLDYL (listed as Homo sapiens) [ABL1-001]	50	13
VFDTAIAHLF (listed as Homo sapiens) [SIAH2-001]	50	4
VFIFKGNQF (listed as Homo sapiens) [MMP3-001]	13	1
VWSDVTPLTF [PROM1-001]	83	26
VYGIRLEHF (listed as Homo sapiens) [NUF2-001]	100	25
VYIEKNDKL (listed as Homo sapiens) [ERBB3-001]	83	15
VYKVVGNLL (listed as Homo sapiens) [IQGAP3-001]	100	24
VYTTSYQQI (listed as Homo sapiens) [NFYB-001]	50	7
YYNAAGFNKL (listed as Homo sapiens) [UQCRB-001]	100	38
